# In patent US9029559B2, “Substituted 3-heteroaroylamino-propionic acid derivatives and their use as pharmaceuticals” (SANOFI, priority 2011, dated 2015):
# Molecular target: Recombinant human cathepsin A (Homo sapiens (Human), UniProt P10619)
# Test: Cathepsin A inhibitory activity (cleavage of Bodipy FL-labeled bradykinin, microfluidic capillary electrophoresis)
# Format: biochemical
# Conditions: read-out: Activity (IC50, cathepsin A inhibitory activity)
# Recombinant human cathepsin A, sequence (P10619 29-326): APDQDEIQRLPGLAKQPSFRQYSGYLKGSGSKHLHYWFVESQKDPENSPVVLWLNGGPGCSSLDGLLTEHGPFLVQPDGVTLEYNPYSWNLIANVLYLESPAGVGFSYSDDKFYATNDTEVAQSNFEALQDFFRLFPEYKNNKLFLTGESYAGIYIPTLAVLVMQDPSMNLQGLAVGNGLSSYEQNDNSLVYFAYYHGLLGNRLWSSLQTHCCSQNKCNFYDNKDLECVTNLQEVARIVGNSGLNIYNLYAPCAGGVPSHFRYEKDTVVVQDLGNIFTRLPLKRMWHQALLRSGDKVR
# Recombinant human cathepsin A, sequence (P10619 327-480): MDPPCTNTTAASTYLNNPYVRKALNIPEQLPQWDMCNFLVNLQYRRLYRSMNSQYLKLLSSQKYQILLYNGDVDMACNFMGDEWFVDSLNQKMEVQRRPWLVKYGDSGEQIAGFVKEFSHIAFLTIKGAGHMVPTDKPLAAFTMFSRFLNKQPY
row,Structure (SMILES),IC50
1,COc1ncc(C(=O)N[C@@H](CC(=O)O)c2ccccc2Cl)cc1-c1cccc(-c2ccccc2)c1 [compound 400],> 10 µM
2,COc1ncc(C(=O)N[C@@H](CC(=O)O)c2ccccc2Cl)cc1-c1ccc(F)cc1C [compound 404],7.14 µM
3,COc1ccc(-c2cc(C(=O)N[C@@H](CC(=O)O)c3ccccc3C)cnc2OC)cc1 [compound 409],9.04 µM
4,COc1ncc(C(=O)N[C@@H](CC(=O)O)c2ccccc2C)cc1-c1ccccc1C [compound 411],1.19 µM
5,COc1ccccc1-c1cc(C(=O)N[C@@H](CC(=O)O)c2ccccc2C)cnc1OC [compound 416],3.42 µM
6,COc1ncc(C(=O)N[C@@H](CC(=O)O)c2ccccc2C)cc1-c1ccccc1F [compound 418],1.08 µM
7,COc1ncc(C(=O)N[C@@H](CC(=O)O)c2ccccc2C)cc1-c1ccc(C#N)cc1 [compound 421],10.4 µM

# Second part, the compound after the results:
row,IC50,Structure (SMILES)
1,3.9 µM,COc1ncc(C(=O)N[C@@H](CC(=O)O)c2ccccc2C)cc1-c1ccccc1 [compound 405]
2,10 µM,COc1ncc(C(=O)N[C@@H](CC(=O)O)c2ccccc2C)cc1-c1ccc(F)c(Cl)c1 [compound 406]
3,4.39 µM,COc1ncc(C(=O)N[C@@H](CC(=O)O)c2ccccc2C)cc1-c1ccc(F)cc1 [compound 407]
4,5.73 µM,COc1ncc(C(=O)N[C@@H](CC(=O)O)c2ccccc2C)cc1-c1ccc(Cl)cc1 [compound 408]
5,5.38 µM,COc1ncc(C(=O)N[C@@H](CC(=O)O)c2ccccc2C)cc1-c1ccc(C)cc1 [compound 410]
6,8.36 µM,COc1cccc(-c2cc(C(=O)N[C@@H](CC(=O)O)c3ccccc3C)cnc2OC)c1 [compound 412]
7,6.24 µM,COc1ncc(C(=O)N[C@@H](CC(=O)O)c2ccccc2C)cc1-c1cccc(Cl)c1 [compound 413]
8,8.07 µM,COc1ncc(C(=O)N[C@@H](CC(=O)O)c2ccccc2C)cc1-c1cccc(F)c1 [compound 414]
9,4.86 µM,COc1ncc(C(=O)N[C@@H](CC(=O)O)c2ccccc2C)cc1-c1cccc(C)c1 [compound 417]

# Same assay, conditions: read-out: Activity [μM] (IC50, cathepsin A inhibitory activity)
row,Structure (SMILES),IC50
1,COc1ccc(C(=O)N[C@@H](CC(=O)O)c2ccccc2C)nc1-c1ccc(C)o1 [compound 376],6.1 µM
2,COc1ccc(C(=O)N[C@@H](CC(=O)O)c2ccccc2C)nc1-c1cc(C)cc(Cl)c1 [compound 378],7.49 µM
3,COc1ccc(C(=O)N[C@@H](CC(=O)O)c2ccccc2C)nc1-c1ccc2ccn(C)c2c1 [compound 380],5.33 µM
4,COc1ccc(C(=O)N[C@@H](CC(=O)O)c2ccccc2C)nc1-c1ccnc(N2CCOCC2)c1 [compound 381],> 10 µM
5,COc1ccc(C(=O)N[C@@H](CC(=O)O)c2ccccc2C)nc1-c1cccc(F)c1Cl [compound 383],1.64 µM
6,COc1ccc(C(=O)N[C@@H](CC(=O)O)c2ccccc2C)nc1-c1cccc(C2(O)COC2)c1 [compound 384],2.39 µM
7,COc1ccc(C(=O)N[C@@H](CC(=O)O)c2ccccc2C)nc1-c1cccc(C(C)(C)O)c1 [compound 385],1.15 µM
8,COc1ncc(C(=O)N[C@@H](CC(=O)O)c2ccccc2Cl)cc1-c1ccc(Cl)cc1 [compound 386],10.4 µM
9,COc1ccc(-c2cc(C(=O)N[C@@H](CC(=O)O)c3ccccc3Cl)cnc2OC)cc1 [compound 387],9.43 µM
10,COc1ncc(C(=O)N[C@@H](CC(=O)O)c2ccccc2Cl)cc1-c1ccc(C)cc1 [compound 388],7.12 µM
11,"COc1ncc(C(=O)N[C@@H](CC(=O)O)c2ccccc2Cl)cc1-c1cccc(Cl)c1 [compound 392, (S)-3-(2-Chloro-phenyl)-3-{[5-(3-choro-phenyl)-6-methoxy-pyridine-3-carbonyl]-amino}-propionic acid]",10.3 µM
12,COc1ccccc1-c1cc(C(=O)N[C@@H](CC(=O)O)c2ccccc2Cl)cnc1OC [compound 394],3.76 µM

# The remaining lines, values ahead:
row,IC50,Structure (SMILES)
1,10.6 µM,COc1cccc(-c2cc(C(=O)N[C@@H](CC(=O)O)c3ccccc3Cl)cnc2OC)c1 [compound 391]
2,6.57 µM,COc1ncc(C(=O)N[C@@H](CC(=O)O)c2ccccc2Cl)cc1-c1cccc(C)c1 [compound 395]
